The values below come from US10322131B2, “Hydroxyacid derivatives, a process for their preparation and pharmaceutical compositions containing them” (LES LABORATOIRES SERVIER, priority 2015, dated 2019).

For one assay, the target named is Mcl-1 protein (Homo sapiens, UniProt Q07820). Briefly: Inhibition of Mcl-1 by the fluorescence polarisation technique. Format: binding. To be noted: fluorescence polarisation test; Fluorescein labelled ligand 1 nM, Mcl-1 protein 5 nM, ~2 hours at r.t.; read-out: IC50 (M) Mcl-1 FP. The method, then: The relative binding potency of each compound was determined via Fluorescence Polarisation (FP). The method utilised a Fluorescein labelled ligand (Fluorescein-βAla-Ahx-A-REIGAQLRRMADDLNAQY-OH; mw 2,765) which binds to the Mcl-1 protein (such that Mcl-1 corresponds to the UniProtKB® primary accession number: Q07820) leading to an increased anisotropy measured in milli-polarisation (mP) units using a reader. The addition of a compound which binds competitively to the same site as the ligand will result in a greater proportion of unbound ligand in the system indicated by a decrease in mP units.
An 11 point serial dilution of each compound was prepared in DMSO and 2 μl transferred into flat bottomed, low binding, 384-well plate (final DMSO concentration 5%). 38 μl of buffer (10 mM 4-(2-hydroxyethyl)-1-piperazineethanesulfonic acid [HEPES], 150 mM NaCl, 0.05% Tween 20, pH 7.4), containing the Fluorescein labelled ligand (final concentration 1 nM) and Mcl-1 protein (final concentration 5 nM) was then added.
Assay plates were incubated ˜2 hours at r.t. before FP was measured on a Biomek Synergy2 reader (Ex. 528 nm, Em. 640 nm, Cut off 510 nm) and mP units calculated. The binding of increasing doses of test compound was expressed as a percentage reduction in mP compared to a window established between ‘5% DMSO only’ and ‘100% inhibition’ controls. 11-point dose response curves were plotted with XL-Fit software using a 4-Parameter Logistic Model (Sigmoidal Dose-Response Model) and the inhibitory concentrations that gave a 50% reduction in mP (IC50) were determined.
In general terms: Polarisation of emitted light reports the rotation of a fluorescent probe.

The test system of a further assay is H929 cells. Briefly: In vitro cytotoxicity (MTT) on H929 multiple myeloma tumour line. Format: cell-based. To be noted: Microculture Tetrazolium Assay. How it is done: The cytotoxicity studies were carried out on the H929 multiple myeloma tumour line.
The cells are distributed onto microplates and exposed to the test compounds for 48 hours.
The cell viability is then quantified by a colorimetric assay, the Microculture Tetrazolium Assay (Cancer Res., 1987, 47, 939-942).

Where [1] appears, read: Homo sapiens, NCI-H929, exposed 48 hours.

Mcl-1 protein, sequence (Q07820 whole entry): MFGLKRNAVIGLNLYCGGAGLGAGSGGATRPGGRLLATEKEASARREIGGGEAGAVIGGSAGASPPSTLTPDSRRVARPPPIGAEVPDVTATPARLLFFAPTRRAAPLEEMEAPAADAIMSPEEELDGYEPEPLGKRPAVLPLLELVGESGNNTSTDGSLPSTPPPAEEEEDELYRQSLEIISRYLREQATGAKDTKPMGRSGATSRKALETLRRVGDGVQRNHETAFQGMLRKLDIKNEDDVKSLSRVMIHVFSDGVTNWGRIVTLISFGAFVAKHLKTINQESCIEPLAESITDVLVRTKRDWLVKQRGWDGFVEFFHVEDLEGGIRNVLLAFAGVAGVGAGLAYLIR

As a reminder, the IC50 is the concentration needed to halve the response being measured. Consider `Cc1c(-c2c(-c3ccc(F)cc3)sc3ncnc(OC(Cc4ccccc4OCc4ccnc(-c5cccc(O)c5)n4)C(=O)O)c23)ccc(OCCN2CCN(C)CC2)c1Cl` [Example 1, (2R)-2-{[(5Sa)-5-{3-chloro-2-methyl-4-[2-(4-methylpiperazin-1-yl)ethoxy]phenyl}-6-(4-fluorophenyl)thieno[2,3-d]pyrimidin-4-yl]oxy}-3-(2-{[2-(3-hydroxyphenyl)pyrimidin-4-yl]methoxy}phenyl)propanoic acid], for which the IC50 at Mcl-1 protein came out at 8.4e-09 M; with H929 cells (setting [1]) it was 9.31 nM. For `Cc1c(-c2c(-c3ccc(F)cc3)sc3ncnc(OC(Cc4ccccc4OCc4ccnc(-c5ccc(O)cc5)n4)C(=O)O)c23)ccc(OCCN2CCN(C)CC2)c1Cl` [Example 2, (2R)-2-{[(5Sa)-5-{3-chloro-2-methyl-4-[2-(4-methylpiperazin-1-yl)ethoxy]phenyl}-6-(4-fluorophenyl)thieno[2,3-d]pyrimidin-4-yl]oxy}-3-(2-{[2-(4-hydroxyphenyl)pyrimidin-4-yl]methoxy}phenyl)propanoic acid] the same measures were 1.32e-08 M and 15.9 nM.

As to `Cc1c(-c2c(-c3ccc(F)cc3)sc3ncnc(OC(Cc4ccccc4OCc4ccnc(-c5cccc(CO)c5)n4)C(=O)O)c23)ccc(OCCN2CCN(C)CC2)c1Cl` [Example 3, (2R)-2-{[(5Sa)-5-{3-chloro-2-methyl-4-[2-(4-methylpiperazin-1-yl)ethoxy]phenyl}-6-(4-fluorophenyl)thieno[2,3-d]pyrimidin-4-yl]oxy}-3-[2-({2-[3-(hydroxymethyl)phenyl]pyrimidin-4-yl}methoxy)phenyl]propanoic acid], the figures for the IC50 at Mcl-1 protein and in the assay on H929 cells (setting [1]) were 4.05e-09 M and 4.08 nM, respectively.

Consider `Cc1c(-c2c(-c3ccc(F)cc3)sc3ncnc(OC(Cc4ccccc4OCc4ccnc(-c5ccc(CO)cc5)n4)C(=O)O)c23)ccc(OCCN2CCN(C)CC2)c1Cl` [Example 4, (2R)-2-{[(5Sa)-5-{3-chloro-2-methyl-4-[2-(4-methylpiperazin-1-yl)ethoxy]phenyl}-6-(4-fluorophenyl)thieno[2,3-d]pyrimidin-4-yl]oxy}-3-[2-({2-[4-hydroxymethyl)phenyl]pyrimidin-4-yl}methoxy)phenyl]propanoic acid], for which the IC50 came out at 4.9e-09 M at Mcl-1 protein and 3.64 nM in the assay with H929 cells (setting [1]). `Cc1c(-c2c(-c3ccc(F)cc3)sc3ncnc(OC(Cc4ccccc4OCc4ccnc(-c5ccccc5OCC5COC(C)(C)O5)n4)C(=O)O)c23)ccc(OCCN2CCN(C)CC2)c1Cl` [Example 5, (2R)-2-{[(5Sa)-5-{3-chloro-2-methyl-4-[2-(4-methylpiperazin-1-yl)ethoxyl]phenyl}-6-(4-fluorophenyl)thieno[2,3-d]pyrimidin-4-yl]oxy}-3-{2-[(2-{2-[(2,2-dimethyl-1,3-dioxolan-4-yl)methoxyl]phenyl}pyrimidin-4-yl)methoxy]phenyl}propanoic acid]: the concentration for half-maximal inhibition (IC50) turned out to be 3.7e-09 M at Mcl-1 protein and 1.65 nM in the assay with H929 cells (setting [1]). The corresponding values for `COCCOCCOc1ccccc1-c1nccc(COc2ccccc2CC(Oc2ncnc3sc(-c4ccc(F)cc4)c(-c4ccc(OCCN5CCN(C)CC5)c(Cl)c4C)c23)C(=O)O)n1` [Example 6, (2R)-2-{[(5Sa)-5-{3-chloro-2-methyl-4-[2-(4-methylpiperazin-1-yl)ethoxy]phenyl}-6-(4-fluoropnhenyl)thieno[2,3-d]pyrimidin-4-yl]oxy}-3-{2-[(2-{2-[2-(2-methoxyethoxy)ethoxy]phenyl}pyrimidin-4-yl)methoxy]phenyl}propanoic acid] are 1.57e-08 M and 3.25 nM. On to `COCCOCCOCCOc1ccccc1-c1nccc(COc2ccccc2CC(Oc2ncnc3sc(-c4ccc(F)cc4)c(-c4ccc(OCCN5CCN(C)CC5)c(Cl)c4C)c23)C(=O)O)n1` [Example 7, (2R)-2-{[(5Sa)-5-{3-chloro-2-methyl-4-[2-(4-methylpiperazin-1-yl)ethoxy]phenyl}-6-(4-flurophenyl)thieno[2,3-d]pyrimidin-4-yl]oxy}-3-(2-{[2-(2-{2-[2-(2-methoxyethoxy)ethoxy]ethoxy}phenyl)pyrimidin-4-yl]methoxy}phenyl)propanoic acid], for which the results for the 50% inhibitory concentration (IC50) at Mcl-1 protein and in the assay with H929 cells (exposed 48 hours) were 3.75e-09 M and 4.45 nM, respectively. Turning to `COCc1ccccc1-c1nccc(COc2ccccc2C[C@@H](Oc2ncnc3sc(-c4ccc(F)cc4)c(-c4ccc(OCCN5CCN(C)CC5)c(Cl)c4C)c23)C(=O)O)n1` [Example 8, (2R)-2-{[(5Sa)-5-{3-chloro-2-methyl-4-[2-(4-methylpiperazin-1-yl)ethoxy]phenyl}-6-(4-flurophenyl)thieno[2,3-d]pyrimidin-4-yl]oxy}-3-[2-({2-[2-(methoxymethyl)phenyl]pyrimidin-4-yl}methoxy)phenyl]propanoic acid], the figures for the half-maximal inhibitory concentration (IC50) at Mcl-1 protein and in the assay with H929 cells (exposed 48 hours) were 7.35e-09 M and 2.07 nM, respectively. For `Cc1c(-c2c(-c3ccc(F)cc3)sc3ncnc(OC(Cc4ccccc4OCc4ccnc(-c5ccc(OCCN6CCOCC6)cc5)n4)C(=O)O)c23)ccc(OCCN2CCN(C)CC2)c1Cl` [Example 56, (2R)-2-{[(5Sa)-5-{3-chloro-2-methyl-4-[2-(4-methylpiperazin-1-yl)ethoxy]phenyl}-6-(4-fluorophenyl)thieno[2,3-d]pyrimidin-4-yl]oxy}-3-{2-[(2-{4-[2-(morpholin-4-yl)ethoxy]phenyl}pyrimidin-4-yl)methoxy]phenyl}propanoic acid], the IC50 at Mcl-1 protein was determined as 4.75e-09 M. On to `CCOC(=O)OC(C)OC(=O)C(Cc1ccccc1OCc1ccnc(-c2cccc(OC(COC)COC)c2)n1)Oc1ncnc2sc(-c3ccc(F)cc3)c(-c3ccc(OCCN4CCN(C)CC4)c(Cl)c3C)c12` [Example 69, 1-[(ethoxycarbonyl)oxy]ethyl (2R)-2-{[(5Sa)-5-{3-chloro-2-methyl-4-[2-(4-methylpiperazin-1-yl)ethoxy]phenyl}-6-(4-fluorophenyl)thieno[2,3-d]pyrimidin-4-yl]oxy}-3-{2-[(2-{3-[(1,3-dimethoxypropan-2-yl)oxy]phenyl}pyrimidin-4-yl)methoxy]phenyl}propanoate], for which the IC50 at Mcl-1 protein was determined as 7.6e-08 M.

As for `Cc1c(-c2c(-c3ccc(F)cc3)sc3ncnc(OC(Cc4ccccc4OCc4ccnc(-c5cncc(CO)c5)n4)C(=O)O)c23)ccc(OCCN2CCN(C)CC2)c1Cl` [Example 79, (2R)-2-{[(5Sa)-5-{3-chloro-2-methyl-4-[2-(4-methylpiperazin-1-yl)ethoxy]phenyl}-6-(4-fluorophenyl)thieno[2,3-d]pyrimidin-4-yl]oxy}-3-[2-({2-[5-(hydroxymethyl)pyridin-3-yl]pyrimidin-4-yl}methoxy)phenyl]propanoic acid], at Mcl-1 protein, the concentration for half-maximal inhibition (IC50) stood at 7.6e-09 M. The same measure, in the same setting: then `Cc1c(-c2c(-c3ccc(F)cc3)sc3ncnc(OC(Cc4ccccc4OCc4ccnc(-c5cnc(CO)nc5)n4)C(=O)O)c23)ccc(OCCN2CCN(C)CC2)c1Cl` [Example 82, (2R)-2-{[(5Sa)-5-{3-chloro-2-methyl-4-[2-(4-methylpiperazin-1-yl)ethoxy]phenyl}-6-(4-fluorophenyl)thieno[2,3-d]pyrimidin-4-yl]oxy}-3-(2-{[2′-(hydroxymethyl)-2,5′-bipyrimidin-4-yl]methoxy}phenyl)propanoic acid], with 7.7e-09 M; and “(2R)-2-{[(5Sa)-5-{2,3-dimethyl-4-[2-(4-methylpiperazin-1-yl)ethoxy]phenyl}-6-(4-fluorophenyl)thieno[2,3-d]pyrimidin-4-yl]oxy}-3-{2-[(2-{3-[({[2-(piperidin-1-yl)ethyl]carbamoyl}oxy)methyl]phenyl}pyrimidin-4-yl)methoxy]phenyl}propanoic acid [Example 50]”, with 6.6e-09 M.
